The record followed here is patent US12091426B2, “Bifunctional degraders of hematopoietic progenitor kinase and therapeutic uses thereof” (Nurix Therapeutics, Inc., priority 2021, dated 2024).

In this assay the target is T1, HPK1 (Homo sapiens, UniProt Q92918).
T1 construct: A HiBiT tag was introduced by CRISPR on the N terminus of HPK1 in Jurkat cells; host or cells: Jurkat cells (ATCC TIB-152), monoclonal line with CRISPR knock-in of HiBiT at the endogenous HPK1 locus
The assay is described as follows: HPK1 Cellular HiBit Degradation Assay. It counts as cell-based. The note with it: HiBiT HPK1 Jurkat cells, 24 hrs; for DC50: concentration at which 50% of HPK1 was remaining, read-out: DC50 Category; for Dmax: Jurkat, read-out: Dmax Category; for Dmax / Dmax Category: maximum degradation vs DMSO vehicle control. In short, it runs like this: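 Jurkat cells with CRISPR knock-in N-terminal HiBiT-HPK1 were treated with CTMs (11-point, 3.16-fold, 10 uM to 0.1 nM final) for 24 hrs at 37° C. HiBiT lytic luminescence, with parental Jurkat as background and DMSO as 100%, gave % HPK1 remaining; four-parameter fit yielded DC50 and Dmax (100 minus lowest % remaining).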
A general note: The HiBiT peptide binds its large partner to form an active luciferase.

Molecules are shown by their SMILES.

T1 sequence (Q92918 whole entry): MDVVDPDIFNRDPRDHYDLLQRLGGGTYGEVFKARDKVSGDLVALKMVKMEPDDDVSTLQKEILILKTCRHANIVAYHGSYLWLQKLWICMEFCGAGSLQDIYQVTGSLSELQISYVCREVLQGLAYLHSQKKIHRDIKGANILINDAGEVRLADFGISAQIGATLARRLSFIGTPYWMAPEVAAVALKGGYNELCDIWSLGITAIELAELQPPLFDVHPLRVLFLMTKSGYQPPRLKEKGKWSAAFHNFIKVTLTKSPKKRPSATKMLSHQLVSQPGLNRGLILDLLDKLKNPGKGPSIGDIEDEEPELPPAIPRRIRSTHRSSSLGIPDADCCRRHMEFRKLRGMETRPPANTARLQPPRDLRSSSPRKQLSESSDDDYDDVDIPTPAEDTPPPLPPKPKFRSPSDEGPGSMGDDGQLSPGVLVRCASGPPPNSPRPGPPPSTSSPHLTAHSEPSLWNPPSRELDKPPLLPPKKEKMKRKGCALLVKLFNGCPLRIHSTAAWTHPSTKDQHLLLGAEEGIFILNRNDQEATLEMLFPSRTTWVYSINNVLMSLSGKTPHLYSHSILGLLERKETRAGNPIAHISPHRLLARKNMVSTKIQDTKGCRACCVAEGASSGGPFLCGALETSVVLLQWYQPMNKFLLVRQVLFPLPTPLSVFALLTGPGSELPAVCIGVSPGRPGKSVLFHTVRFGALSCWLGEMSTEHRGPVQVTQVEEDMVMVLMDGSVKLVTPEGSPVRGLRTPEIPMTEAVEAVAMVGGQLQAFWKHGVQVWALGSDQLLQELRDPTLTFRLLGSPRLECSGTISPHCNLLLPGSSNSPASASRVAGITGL

In the case of `Cc1cc(F)c(Nc2nc(-c3ccc4c(c3)N([C@H]3C[C@@H](N5CCCCC5)C3)C(=O)C43CCN(C(=O)C4CCN(CC5CCN(c6cccc7c6n(C)c(=O)n7C6CCC(=O)NC6=O)CC5)CC4)CC3)cc3ncn(C(C)C)c23)cc1C(=O)NC(C)C` (mixture of isomers) [Example 142, 5-{[6-(1′-{1-[(1-{1-[(3RS)-2,6-dioxopiperidin-3-yl]-3-methyl-2-oxo-2,3-dihydro-1H-1,3-benzodiazol-4-yl}piperidin-4-yl)methyl]piperidine-4-carbonyl}-2-oxo-1-[(1S,3S)-3-(piperidin-1-yl)cyclobutyl]-1,2-dihydrospiro[indole-3,4′-piperidin]-6-yl)-3-(propan-2-yl)-3H-imidazo[4,5-c]pyridin-4-yl]amino}-4-fluoro-2-methyl-N-(propan-2-yl)benzamide], the DC50 is 500 to 1000 nM and the Dmax was in the range of 70 to 85%.

On to `CC(C)n1cnc2cc(-c3ccc4c(c3)N([C@H]3C[C@@H](N5CCCCC5)C3)C(=O)C43CCN(C(=O)[C@H]4CCN(C(=O)[C@H]5CC[C@@H](Nc6cccc7c6n(C)c(=O)n7C6CCC(=O)NC6=O)CC5)C4)CC3)nc(Nc3ccccc3F)c21` (mixture of isomers) [Example 143, (3RS)-3-(3-methyl-2-oxo-4-{[(1R,4R)-4-[(3S)-3-[(6-{4-[(2-fluorophenyl)amino]-3-(propan-2-yl)-3H-imidazo[4,5-c]pyridin-6-yl}-2-oxo-1-[(1S,3S)-3-(piperidin-1-yl)cyclobutyl]-1,2-dihydrospiro[indole-3,4′-piperidin]-1′-yl)carbonyl]pyrrolidine-1-carbonyl]cyclohexyl]amino}-2,3-dihydro-1H-1,3-benzodiazol-1-yl)piperidine-2,6-dione], for which the DC50 was below 100 nM and the Dmax was in the range of 50 to 70%.

Turning to `CC(C)n1cnc2cc(-c3ccc4c(c3)N([C@H]3C[C@@H](N5CCCCC5)C3)C(=O)C43CCN(C(=O)[C@@H]4CCN(C(=O)[C@H]5CC[C@H](Nc6cccc7c6n(C)c(=O)n7C6CCC(=O)NC6=O)CC5)C4)CC3)nc(Nc3ccccc3F)c21` (mixture of isomers) [Example 144, (3RS)-3-(3-methyl-2-oxo-4-{[(1R,4R)-4-[(3R)-3-[(6-{4-[(2-fluorophenyl)amino]-3-(propan-2-yl)-3H-imidazo[4,5-c]pyridin-6-yl}-2-oxo-1-[(1S,3S)-3-(piperidin-1-yl)cyclobutyl]-1,2-dihydrospiro[indole-3,4′-piperidin]-1′-yl)carbonyl]pyrrolidine-1-carbonyl]cyclohexyl]amino}-2,3-dihydro-1H-1,3-benzodiazol-1-yl)piperidine-2,6-dione], the DC50 is below 100 nM and the Dmax fell in the range of 50 to 70%.

Turning to `Cc1cc(F)c(Nc2nc(-c3ccc4c(c3)N([C@H]3C[C@@H](N5CCCCC5)C3)C(=O)C43CCN(C(=O)c4cc(C(=O)N5CCN(c6ccc7c(c6)C(=O)N(C6CCC(=O)NC6=O)C7=O)CC5)n(C)n4)CC3)cc3ncn(C(C)C)c23)cc1C(=O)NC(C)C` (mixture of isomers) [Example 145, 5-[(6-{1′-[5-(4-{2-[(3RS)-2,6-dioxopiperidin-3-yl]-1,3-dioxo-2,3-dihydro-1H-isoindol-5-yl}piperazine-1-carbonyl)-1-methyl-1H-pyrazole-3-carbonyl]-2-oxo-1-[(1S,3S)-3-(piperidin-1-yl)cyclobutyl]-1,2-dihydrospiro[indole-3,4′-piperidin]-6-yl}-3-(propan-2-yl)-3H-imidazo[4,5-c]pyridin-4-yl)amino]-4-fluoro-2-methyl-N-(propan-2-yl)benzamide], the DC50 fell in the range of 500 to 1000 nM and the Dmax was in the range of 50 to 70%.

For the molecule `CC(C)n1cnc2cc(-c3ccc4c(c3)N([C@H]3C[C@@H](N5CCCCC5)C3)C(=O)C43CCN(C(=O)c4cc(C(=O)N5CCN(c6ccc7c(c6)C(=O)N(C6CCC(=O)NC6=O)C7=O)CC5)n(C)n4)CC3)nc(Nc3ccccc3F)c21` (mixture of isomers) [Example 146, 2-[(3RS)-2,6-dioxopiperidin-3-yl]-5-(4-{3-[(6-{4-[(2-fluorophenyl)amino]-3-(propan-2-yl)-3H-imidazo[4,5-c]pyridin-6-yl}-2-oxo-1-[(1S,3S)-3-(piperidin-1-yl)cyclobutyl]-1,2-dihydrospiro[indole-3,4′-piperidin]-1′-yl)carbonyl]-1-methyl-1H-pyrazole-5-carbonyl}piperazin-1-yl)-2,3-dihydro-1H-isoindole-1,3-dione], the DC50 is 100 to 500 nM and the Dmax fell in the range of 70 to 85%.

For the molecule `CC(C)n1cnc2cc(-c3ccc4c(c3)N([C@H]3C[C@@H](N5CCCCC5)C3)C(=O)C43CCN(C(=O)[C@]4(C)CCN(C(=O)C5CCN(c6ccc(C7CCC(=O)NC7=O)cc6F)CC5)C4)CC3)nc(NC3CC3)c21` (mixture of isomers) [Example 147, (3RS)-3-(4-{4-[(3R)-3-({6-[4-(cyclopropylamino)-3-(propan-2-yl)-3H-imidazo[4,5-c]pyridin-6-yl]-2-oxo-1-[(1S,3S)-3-(piperidin-1-yl)cyclobutyl]-1,2-dihydrospiro[indole-3,4′-piperidin]-1′-yl}carbonyl)-3-methylpyrrolidine-1-carbonyl]piperidin-1-yl}-3-fluorophenyl)piperidine-2,6-dione], the DC50 is 100 to 500 nM and the Dmax is above 85%.

As to `Cc1cc(C2CCC(=O)NC2=O)cnc1N1CCC(C(=O)N2CCC(C)(C(=O)N3CCC4(CC3)C(=O)N(C3CC(N5CCCCC5)C3)c3cc(-c5cc6ncn(C(C)C)c6c(NC6CC6)n5)ccc34)CC2)CC1` (racemic) [Example 148, (3RS)-3-(6-{4-[4-({6-[4-(cyclopropylamino)-3-(propan-2-yl)-3H-imidazo[4,5-c]pyridin-6-yl]-2-oxo-1-[(1S,3S)-3-(piperidin-1-yl)cyclobutyl]-1,2-dihydrospiro[indole-3,4′-piperidin]-1′-yl}carbonyl)-4-methylpiperidine-1-carbonyl]piperidin-1-yl}-5-Methylpyridin-3-yl)piperidine-2,6-dione], the DC50 is below 100 nM and the “Dmax Category” value is “B (B: >70%-<85%)”.

With `CC(C)n1cnc2cc(-c3ccc4c(c3)N(C3CC(N5CCCCC5)C3)C(=O)C43CCN(C(=O)CC4(C)CCN(C(=O)C5CCN(c6ccc(C7CCC(=O)NC7=O)cn6)CC5)CC4)CC3)nc(NC3CC3)c21` (racemic) [Example 149, (3RS)-3-(6-{4-[4-(2-{6-[4-(cyclopropylamino)-3-(propan-2-yl)-3H-imidazo[4,5-c]pyridin-6-yl]-2-oxo-1-[(1S,3S)-3-(piperidin-1-yl)cyclobutyl]-1,2-dihydrospiro[indole-3,4′-piperidin]-1′-yl}-2-oxoethyl)-4-methylpiperidine-1-carbonyl]piperidin-1-yl}pyridin-3-yl)piperidine-2,6-dione], the DC50 was below 100 nM and the “Dmax Category” value is given as “B (B: >70%-<85%)”.

With `CC(C)n1cnc2cc(-c3ccc4c(c3)N([C@H]3C[C@@H](N5CCCCC5)C3)C(=O)C43CCN(C(=O)C4(C)CCN(C(=O)[C@H]5CC[C@H](N(C)c6ccc(C7CCC(=O)NC7=O)cc6)CC5)CC4)CC3)nc(NC3CC3)c21` (mixture of isomers) [Example 150, (3RS)-3-(4-{methyl[(1R,4R)-4-[4-({6-[4-(cyclopropylamino)-3-isopropylimidazo[4,5-c]pyridin-6-yl]-2-oxo-1-[(1S,3S)-3-(piperidin-1-yl)cyclobutyl]spiro[indole-3,4′-piperidin]-1′-yl}carbonyl)-4-methylpiperidine-1-carbonyl]cyclohexyl]amino}phenyl)piperidine-2,6-dione], the DC50 fell in the range of 100 to 500 nM and the Dmax is 50 to 70%.

`CC(C)n1cnc2cc(-c3ccc4c(c3)N(C3CC(N5CCCCC5)C3)C(=O)C43CCN(C(=O)C4(C)CCN(C(=O)C5(C)CCN(c6ccc(C7CCC(=O)NC7=O)cn6)CC5)CC4)CC3)nc(NC3CC3)c21` (racemic) [Example 151, (3RS)-3-(6-{4-[4-({6-[4-(cyclopropylamino)-3-isopropylimidazo[4,5-c]pyridin-6-yl]-2-oxo-1-[(1S,3S)-3-(piperidin-1-yl)cyclobutyl]spiro[indole-3,4′-piperidin]-1′-yl}carbonyl)-4-methylpiperidine-1-carbonyl]-4-methylpiperidin-1-yl}pyridin-3-yl)piperidine-2,6-dione]: the DC50 was below 100 nM and the “Dmax Category” value is reported as “B (B: >70%-<85%)”.

Turning to `CC(C)n1cnc2cc(-c3ccc4c(c3)N([C@H]3C[C@@H](N5CCCCC5)C3)C(=O)C43CCN(C(=O)C4(C)CCN(C(=O)C5CCN(c6ccc(C7CCC(=O)NC7=O)cc6F)CC5)CC4)CC3)nc(NC3CC3)c21` (mixture of isomers) [Example 152, (3RS)-3-(4-{4-[4-({6-[4-(cyclopropylamino)-3-isopropylimidazo[4,5-c]pyridin-6-yl]-2-oxo-1-[(1S,3S)-3-(piperidin-1-yl)cyclobutyl]spiro[indole-3,4′-piperidin]-1′-yl}carbonyl)-4-methylpiperidine-1-carbonyl]piperidin-1-yl}-3-Fluorophenyl)piperidine-2,6-dione], the DC50 was below 100 nM and the Dmax is 70 to 85%.

Regarding `Cc1cc(C2CCC(=O)NC2=O)ccc1O[C@H]1CC[C@H](C(=O)N2CCC(C)(C(=O)N3CCC4(CC3)C(=O)N([C@H]3C[C@@H](N5CCCCC5)C3)c3cc(-c5cc6ncn(C(C)C)c6c(NC6CC6)n5)ccc34)CC2)CC1` (mixture of isomers) [Example 156, (3RS)-3-(3-methyl-4-{[(1R,4R)-4-[4-({6-[4-(cyclopropylamino)-3-isopropylimidazo[4,5-c]pyridin-6-yl]-2-oxo-1-[(1S,3S)-3-(piperidin-1-yl)cyclobutyl]spiro[indole-3,4′-piperidin]-1′-yl}carbonyl)-4-methylpiperidine-1-carbonyl]cyclohexyl]oxy}phenyl)piperidine-2,6-dione], the DC50 is 100 to 500 nM and the Dmax was above 85%.

One may read the DC50 as the concentration at which degradation of the target reaches its halfway point. The Dmax is the greatest extent of degradation seen.
